Test results from patent publication US5503776A, “N-acylcarnosines and their use as antioxidants” (National Food Research Institute Ministry of Agriculture, …, priority 1991, dated 1996).
Peptide text beside a SMILES is read from it. * marks the point of attachment. Oleoyl = CCCCCCCC/C=C\CCCCCCCC(=O)*

What was measured:
[1] = Repression of the radical chain autoxidation reaction of methyl linoleate (HPLC of methyl linoleate hydroperoxide); settings: hexane/isopropyl alcohol (1:1 v/v), 100 mM methyl linoleate, 10 mM 2,2'-azo-bis(2,4-dimethyl valeronitrile), 37° C.; FIG. 8-10
Method: The N-oleoyl-carnosine, N-caprinoyl-carnosine and N-oleoyl-carnosine methyl ester obtained respectively in Examples 1, 3 and 4 were tested for antioxidizing power in terms of repression of the radical chain autoxidation reaction of methyl linoleate. Hexane/isopropyl alcohol (1:1 v/v) containing 100 mM of methyl linoleate, 10 mM of an oil-soluble generating agent (2,2'-azo-bis(2,4-dimethyl valeronitrile)), and various concentration of N-oleoyl-carnosine, N-caprinoyl-carnosine or N-oleoyl-carnosine methyl ester was kept incubated at 37° C., sampled at intervals along the course of time, and analyzed by high-performance liquid chromatography to follow changes in the amount of methyl linoleate hydroperoxide to be formed.

[2] = Emulsifying power in soybean oil/phosphate buffer, turbidity of lower layer O.D. (500 nm); type: physicochemical; settings: 0.2% in 50 mM phosphate buffer (pH 7), 30° C.; for Relative emulsifying activity (%): one half volume soybean oil, ultrasonic wave, relative to N-oleoyl-carnosine taken as 100; for emulsifying power (in words): oil-water system, soybean oil
Method: The N-oleoyl-carnosine and the N-oleoyl-histidine obtained respectively in Example 1 and Example 2 were tested for emulsifying power. The emulsifying power was determined by dissolving each N-acyl compound in a concentration of 0.2% in 50 mM of phosphate buffer solution (pH 7), combining the resultant solution with one half in volume of soybean oil, subjecting the resultant mixture to a treatment with ultrasonic wave at 30° C., allowing the treated mixture to stand at rest at 30° C. for a prescribed time, and measuring the turbidity of the lower layer consequently separated in the mixture in terms of O.D. (500 nm). […] The magnitudes of emulsifying power given in Table 1 represent relative numerical values of emulsifying power based on the emulsifying power of N-oleoyl-carnosine taken as 100.

[3] = Repression of the radical chain autoxidizing reaction of a multilayer liposome (ferrous sulfate/ascorbic acid, TBA reaction); settings: 10 μM compound in liposome, 0.1 mM ferrous sulfate, 1 mM ascorbic acid, pH 7.4, 37° C.; FIG. 11
Method: The N-oleoyl-carnosine and the N-oleoyl-histidine obtained respectively in Example 1 and Example 2 were tested for antioxidizing power in terms of the repression of the radical chain autoxidizing reaction of a multilayer liposome. A multilayer liposome was formed of 4 mM of egg yolk phosphatidylcholine, 0.4 mM of egg yolk phosphatidylcholine hydroperoxide,and 10 μM of N-oleoylcarnosine or N-oleoyl-histidine by the use of 10 mM trishydrochloric acid buffer solution (pH 7.4). The multilayer liposome and 0.1 mM of ferrous sulfate and 1 mM of ascorbic acid added thereto were incubated at 37° C., sampled at intervals along the course of time, subjected to the TBA reaction to induce coloration of malondialdehyde resulting from the hydrolysis of lipid peroxide, and analyzed by high-performance liquid chromatography to follow changes in the amount of the hydrolyzate.

Relative emulsifying activity (%) [2] [%]	Compound	antioxidizing power (formation of methyl linoleate hydroperoxide) [1]	emulsifying power (in words) [2]	antioxidizing power (malondialdehyde from lipid peroxide) [3]
–	CCCCCCCCCC(=O)N[C@@H](Cc1c[nH]cn1)C(=O)O [N-caprinoyl histidine]	have antioxidizing powers	–	–
–	CCCCCCCCCC(=O)NCCC(=O)NC(Cc1cnc[nH]1)C(=O)O (centres unmarked) [N-caprinoyl-carnosine, N-Caprinoyl carnosine]	possessed of antioxidizing power	–	–
–	CCCCCCCC/C=C\CCCCCCCC(=O)NCC(=O)NCC(=O)N[C@@H](Cc1c[nH]cn1)C(=O)O [N-oleoyl glycylglycylhistidine] (Oleoyl-Gly-Gly-His-OH)	have antioxidizing powers	–	–
–	CCCCCCCC/C=C\CCCCCCCC(=O)N[C@@H](Cc1c[nH]cn1)C(=O)N[C@@H](CC(C)C)C(=O)O [N-oleoyl histidylleucine] (Oleoyl-His-Leu-OH)	have antioxidizing powers	–	–
82.1	CCCCCCCC/C=C\CCCCCCCC(=O)N[C@@H](Cc1cnc[nH]1)C(=O)O [N-oleoyl-His]	have antioxidizing powers	possessed of outstanding emulsifying power	possessed of antioxidizing power
–	CCCCCCCC/C=C\CCCCCCCC(=O)NCCC(=O)N[C@@H](Cc1cnc[nH]1)C(=O)OC [N-oleoyl-carnosine methyl ester, N-Oleoyl carnosine methyl ester]	possessed of antioxidizing power	–	–
100	CCCCCCCC/C=C\CCCCCCCC(=O)NCCC(=O)N[C@@H](Cc1cnc[nH]1)C(=O)O [N-oleoyl-carnosine]	possessed of antioxidizing power	possessed of outstanding emulsifying power	possessed of antioxidizing power

Compound	Relative emulsifying activity (%) [2] [%]	antioxidizing power (formation of methyl linoleate hydroperoxide) [1]	emulsifying power (in words) [2]	antioxidizing power (malondialdehyde from lipid peroxide) [3]
Casein	24.3	–	–	–
